Test results taken from patent publication US20160355530A1, “HEPATITIS C INHIBITORS AND USES THEREOF” (AbbVie Inc., priority 2010, published 2016).
Like-named read-outs stand apart in the source and are kept apart here.

Experiments:
[1] = system: chimeric replicon with 2a-J6CF-derived NS5B; assay: microbe, parasite or virus in culture; type: cell-based, HCV genotype 2a; conditions: Hepatitis C virus, read-out: 2a chimera 5% FBS EC50
[2] = system: chimeric replicon with genotype 3a NS5B; assay: microbe, parasite or virus in culture; type: cell-based, HCV genotype 3a; conditions: Hepatitis C virus, read-out: 3a chimera 5% FBS EC50
[3] = system: HCV 1b-BB7 subgenomic replicon; assay: microbe, parasite or virus in culture; type: cell-based, HCV genotype 1b; conditions: Hepatitis C virus, stable replicon
[4] = system: HCV 1a-H77 subgenomic replicon; assay: microbe, parasite or virus in culture; type: cell-based, HCV genotype 1a; conditions: Hepatitis C virus, stable replicon
[5] = target: T1, HCV NS5B polymerase 1b BK strain (Hepatitis C virus genotype 1b, UniProt P26663); assay: HCV NS5B polymerase enzymatic inhibition assay, strain 1b BK; type: biochemical; conditions: enzyme, strain 1b BK; read-out: HCV Polymerase Strain 1b BK IC50
T1 construct: six-histidine tag; made in house; host or cells: E. coli
Outline: (§1)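 Incorporation of [3H]UTP (0.284 μM), alongside 20 μM each CTP and ATP, into RNA copied from a 5 nM 2.1 kb genotype 1b negative-strand template was measured after 3 h at 30° C using purified His-tagged NS5B truncated at residue 570. Product was spermine-precipitated, filtered and scintillation-counted; nonlinear regression gave IC50.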

[6] = system: chimeric replicon with genotype 2b NS5B; assay: microbe, parasite or virus in culture; type: cell-based, HCV genotype 2b; conditions: Hepatitis C virus, read-out: 2b chimera 5% FBS EC50
[7] = system: chimeric replicon with genotype 4a NS5B; assay: microbe, parasite or virus in culture; type: cell-based, HCV genotype 4a; conditions: Hepatitis C virus, read-out: 4a chimera 5% FBS EC50
[8] = target: T2, HCV NS5B polymerase 1a-H77 (Hepatitis C virus genotype 1a, UniProt P27958); assay: biochemical; parameters: species or system HCV genotype 1a; conditions: enzyme, strain 1a H77; read-out: HCV Polymerase Strain 1a H77 IC50
T2 construct: six-histidine tag; made in house; host or cells: E. coli
Outline: as §1

[9] = system: HCV NS5B polymerase 1a-H77-C316Y; assay: biochemical; parameters: species or system HCV genotype 1a; conditions: ratio of enzyme IC50s, 1a H77-C316Y / 1a H77
Outline: as §1

[10] = target: T3, HCV NS5B polymerase 1a-H77-C316Y (Hepatitis C virus genotype 1a, UniProt P27958, C2736Y); assay: biochemical; parameters: species or system HCV genotype 1a
T3 construct: six-histidine tag; made in house; host or cells: E. coli
Outline: as §1

[11] = system: HCV 1a-H77 C316Y mutant subgenomic replicon; assay: Stable replicon cell culture assay (luciferase), 1a-H77-C316Y mutant; type: cell-based, HCV genotype 1a; conditions: for EC50: Hepatitis C virus, read-out: Stable Replicon 1a H77-C316Y 5% FBS EC50; for Stable Replicon Fold Resistance C316Y/1a: ratio of stable replicon EC50s, C316Y / 1a H77
[12] = system: HCV 1a-H77 transient subgenomic replicon in Huh-7 derived cell line; assay: microbe, parasite or virus in culture; type: cell-based, HCV genotype 1a; conditions: Hepatitis C virus, Huh-7; transient replicon, 5% FBS; read-out: Transient Replicon 1a H77 5% FBS EC50
Outline: (§2)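 Subgenomic replicon RNA (no Neo gene) electroporated into Huh-7-derived cells, plated at 5×10^3 cells/well; a 4 h plate gauged transfection efficiency. Cells exposed to 3-fold compound dilutions (0.5% DMSO) for 4 days at 37° C, then lysed for luciferase readout; EC50 calculated.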

[13] = system: HCV 1a-H77-C316Y transient subgenomic replicon in Huh-7 derived cell line; assay: microbe, parasite or virus in culture; type: cell-based, HCV genotype 1a; conditions: for EC50: Hepatitis C virus, Huh-7, read-out: Transient Replicon 1a H77-C316Y 5% FBS EC50; for Transient Replicon Fold Resistance C316Y/1a: ratio of transient replicon EC50s, C316Y / 1a H77
Outline: as §2

[14] = target: T4, HCV NS5B polymerase 1b Rice (Hepatitis C virus genotype 1b, UniProt Q9WMX2); assay: HCV NS5B polymerase enzymatic inhibition assay, strain 1b Rice; type: biochemical, HCV genotype 1b; conditions: enzyme
T4 construct: six-histidine tag; made in house; host or cells: E. coli
Protocol: Purified HCV NS5B polymerase enzymes were used for polymerase inhibition assays. All recombinant HCV polymerases contained the first 570 amino acids of the 591 amino acid native protein sequence and a six-histidine tag at the N-terminus or C-terminus to facilitate purification by affinity chromatography. The DNA nucleotide sequence for the HCV polymerase 1b BK strain was codon optimized for expression in E. coli. A synthetic gene was prepared from a series of overlapping oligonucleotides that were filled in using a DNA polymerase and amplified by PCR. The patient isolate HCV polymerases were cloned by RT-PCR methods using HCV RNA extracted from the serum of infected subjects obtained from ProMedDx and BioCollections (genotypes 2a, 2b, 3a, and 4a). Laboratory strains were cloned from plasmid DNA (1a-H77 or 1a-H77-C316Y) or from existing replicon cells (1b Rice). In all cases the amplified DNA was cloned into a protein expression vector (typically a pET vector from Novagen) and then multiple clones were sequenced to identify one whose NS5B sequence agreed with the population sequence. This sequence-confirmed clone was then transfected into E. coli for protein expression and purification. E. coli cultures were grown to a maximum optical density (OD) of 2-3 and then induced with 0.4 mM isopropyl beta-D-thiogalactopyranoside (IPTG) and grown for 20 hours at 20° C.
Proteins were purified using nickel affinity chromatography, and additional column steps were added including, ion exchange, size exclusion, hydrophobic ion, and poly-U affinity chromatography, as needed, depending on the sample being purified. The template RNA used in the polymerase enzymatic assay was a 2.1 kb construct that corresponds to the 3′-end of an HCV genotype 1b negative strand RNA.
The reaction was initiated by the addition of 20 μM CTP, 20 μM ATP, 0.284 μM (0.5 μCi) of 5,6-[^3H] UTP, 5 nM template RNA and 0.1 U/μL RNase inhibitor (RNasin, Promega), and allowed to proceed for three hours at 30° C. The final reaction volume was 50 μL. The reaction was terminated by the addition of 50 uL of 4 mM spermine in 10 mM Tris-HCl, pH 7.5, 1 mM EDTA. The quenched reaction was allowed to incubate for at least 15 minutes at room temperature, and then the precipitated RNA was captured by filtration through a glass fiber filter (GF/B, Millipore) in a 96 well format. The filter plate was washed five times with 200 μL of 2 mM spermine, 10 mM Tris-HCl, pH 8.0, 1 mM EDTA, and two times with ethanol. After drying thoroughly in air, 30 μL of Microscint-20 scintillation cocktail (Perkin Elmer) was added to each well, and the retained cpm were determined by scintillation counting. IC50 values were determined by nonlinear regression.
% Inhibition=100*[[I]/([I]+[IC50])] equation 1
V=kcat[S]/2(Km+[S])*(sqrt((IC50+I−E)̂2+(4*IC50*E))−(IC50+I−E)) equation 2

[15] = strain 1b BB7, 5% FBS + 40% human plasma, read-out: 1b BB7 5% FBS + 40% Human Plasma EC50
[16] = strain 1b BB7, 5% FBS, no human plasma, read-out: 1b BB7 5% FBS EC50
[17] = strain 1b BB7, 5% FBS, read-out: 1b BB7 5% FBS EC50
[18] = 5% FBS, absence of human plasma, read-out: Stable Replicon 1a H77 5% FBS EC50
[19] = strain 1a H77, 5% FBS + 40% human plasma, read-out: 1a H77 5% FBS + 40% Human Plasma EC50
[20] = strain 1a H77, 5% FBS, no human plasma, read-out: 1a H77 5% FBS EC50
[21] = strain 1a H77, 5% FBS, read-out: 1a H77 5% FBS EC50

T3 sequence (P27958 2421-2990 C2736Y): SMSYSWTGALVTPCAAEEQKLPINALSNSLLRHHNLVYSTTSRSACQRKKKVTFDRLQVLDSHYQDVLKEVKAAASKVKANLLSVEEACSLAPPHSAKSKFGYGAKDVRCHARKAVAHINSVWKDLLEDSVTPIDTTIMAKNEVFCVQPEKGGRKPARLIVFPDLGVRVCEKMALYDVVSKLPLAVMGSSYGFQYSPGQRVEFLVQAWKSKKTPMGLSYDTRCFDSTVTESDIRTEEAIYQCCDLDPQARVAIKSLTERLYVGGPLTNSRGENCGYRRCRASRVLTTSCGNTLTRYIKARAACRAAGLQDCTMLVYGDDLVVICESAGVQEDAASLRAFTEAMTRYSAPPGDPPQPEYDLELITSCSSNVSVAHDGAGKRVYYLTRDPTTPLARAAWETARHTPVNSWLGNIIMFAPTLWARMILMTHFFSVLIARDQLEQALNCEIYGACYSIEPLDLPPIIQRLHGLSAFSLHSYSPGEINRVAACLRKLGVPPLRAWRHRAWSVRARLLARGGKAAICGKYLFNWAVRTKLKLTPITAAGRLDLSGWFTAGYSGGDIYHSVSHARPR
T2 sequence (P27958 2421-2990): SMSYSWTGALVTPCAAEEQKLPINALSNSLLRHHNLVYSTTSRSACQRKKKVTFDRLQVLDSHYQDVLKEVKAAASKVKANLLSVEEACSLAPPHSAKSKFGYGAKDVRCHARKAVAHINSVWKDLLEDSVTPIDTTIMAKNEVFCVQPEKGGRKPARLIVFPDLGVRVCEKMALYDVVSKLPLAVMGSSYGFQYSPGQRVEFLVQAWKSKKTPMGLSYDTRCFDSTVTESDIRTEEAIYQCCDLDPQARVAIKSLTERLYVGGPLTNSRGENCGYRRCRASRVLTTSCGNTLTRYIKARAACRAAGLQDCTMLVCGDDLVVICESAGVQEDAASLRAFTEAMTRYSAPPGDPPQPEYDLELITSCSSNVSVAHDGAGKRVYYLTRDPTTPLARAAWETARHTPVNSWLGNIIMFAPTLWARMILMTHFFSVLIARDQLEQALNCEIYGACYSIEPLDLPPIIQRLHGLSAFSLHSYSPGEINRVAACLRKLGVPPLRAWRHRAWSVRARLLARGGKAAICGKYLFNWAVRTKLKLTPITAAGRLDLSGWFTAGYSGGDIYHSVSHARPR
T1 sequence (P26663 2420-2989): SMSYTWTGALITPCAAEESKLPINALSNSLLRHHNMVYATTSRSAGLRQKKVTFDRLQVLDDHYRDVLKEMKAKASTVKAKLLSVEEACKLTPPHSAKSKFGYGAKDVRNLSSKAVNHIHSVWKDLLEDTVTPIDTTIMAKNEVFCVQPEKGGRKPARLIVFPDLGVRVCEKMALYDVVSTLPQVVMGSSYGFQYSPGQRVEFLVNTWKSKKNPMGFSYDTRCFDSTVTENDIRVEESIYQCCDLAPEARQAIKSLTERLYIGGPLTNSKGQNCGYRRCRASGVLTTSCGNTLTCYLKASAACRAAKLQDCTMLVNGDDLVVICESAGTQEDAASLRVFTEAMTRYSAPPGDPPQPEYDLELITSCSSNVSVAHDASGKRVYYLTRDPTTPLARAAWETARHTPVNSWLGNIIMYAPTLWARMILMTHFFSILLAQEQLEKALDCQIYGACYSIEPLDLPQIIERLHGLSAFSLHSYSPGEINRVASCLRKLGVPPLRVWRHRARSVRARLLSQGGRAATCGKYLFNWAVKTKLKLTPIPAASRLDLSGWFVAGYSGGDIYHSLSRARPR

SMILES	EC50 [1] [nM]	EC50 [2] [nM]	EC50 [3, 15] [nM]	EC50 [3, 16] [nM]	EC50 [3, 17] [nM]	EC50 [4, 18] [nM]	EC50 [4, 19] [nM]	EC50 [4, 20] [nM]	EC50 [4, 21] [nM]	IC50 [5] [nM]	EC50 [6] [nM]	EC50 [7] [nM]	IC50 [8] [nM]	C316Y/1a Fold Resistance [9] [fold]	IC50 [10] [nM]	EC50 [11] [nM]	Stable Replicon Fold Resistance C316Y/1a [11] [fold]	other results
CS(=O)(=O)N(CCc1csc(N)n1)c1cc2oc(-c3ccc(F)cc3)c(-c3ncc[nH]3)c2cc1C1CC1 [Example 97, N-[2-(2-amino-1,3-thiazol-4-yl)ethyl]-N-[5-cyclopropyl-2-(4-fluorophenyl)-3-(1H-imidazol-2-yl)-1-benzofuran-6-yl]methanesulfonamide]	595	36	644	62	62	108	721	108	108	39	895	528	6	92	549	3770	34.9	
CC1NC(c2c(-c3ccc(F)cc3)oc3cc(N(CCO)S(C)(=O)=O)c(C4CC4)cc23)=NO1 (stereo not drawn) [Example 158, N-[5-cyclopropyl-2-(4-fluorophenyl)-3-(5-methyl-4,5-dihydro-1,2,4-oxadiazol-3-yl)-1-benzofuran-6-yl]-N-(2-hydroxyethyl)methanesulfonamide]	302	43	335	23.5	23.5	23.3	260	23.3	23.3	36.3	205	176	8.3	19	160	1150	49.4	EC50 [12]: 19.5 nM; EC50 [13]: 304 nM; Transient Replicon Fold Resistance C316Y/1a [13]: 16 fold
C=C(c1ccccc1)c1ccc(-c2oc3cc(N(CCC(C)C)S(C)(=O)=O)c(C4CC4)cc3c2-c2ncc[nH]2)cc1 [Example 167, N-{5-cyclopropyl-3-(1H-imidazol-2-yl)-2-[4-(1-phenylvinyl)phenyl]-1-benzofuran-6-yl}-N-(3-methylbutyl)methanesulfonamide]										160			49.2	161	7900			IC50 [14]: 61.6 nM; EC50 [12]: 8.1 nM; EC50 [13]: 6.11 nM; Transient Replicon Fold Resistance C316Y/1a [13]: 1 fold
CS(=O)(=O)N(CCCc1nsc(=O)[nH]1)c1cc2oc(-c3ccc(F)cc3)c(-c3ncc[nH]3)c2cc1C1CC1 [Example 178, N-[5-cyclopropyl-2-(4-fluorophenyl)-3-(1H-imidazol-2-yl)-1-benzofuran-6-yl]-N-[3-(5-oxo-4,5-dihydro-1,2,4-thiadiazol-3-yl)propyl]methanesulfonamide]	116	24.4	274	18	18	54.4	431	54.4	54.4	65	91.3	239	13	64	828	544	10.0	
CS(=O)(=O)N(CCCc1n[nH]c(=O)o1)c1cc2oc(-c3ccc(F)cc3)c(-c3ncc[nH]3)c2cc1C1CC1 [Example 179, N-[5-cyclopropyl-2-(4-fluorophenyl)-3-(1H-imidazol-2-yl)-1-benzofuran-6-yl]-N-[3-(5-oxo-4,5-dihydro-1,3,4-oxadiazol-2-yl)propyl]methanesulfonamide]	66	10.5	78	9	9	9.8	52	9.8	9.8	25	84.9	77.8	4	11	45	686	70.0	
CS(=O)(=O)N(CCCCO)c1cc2oc(-c3ccc(F)cc3)c(-c3noc(=O)[nH]3)c2cc1C1CC1 [Example 185, N-[5-cyclopropyl-2-(4-fluorophenyl)-3-(5-oxo-4,5-dihydro-1,2,4-oxadiazol-3-yl)-1-benzofuran-6-yl]-N-(4-hydroxybutyl)methanesulfonamide]	1000	770	10000	1000	1000	1000	10000	1000	1000	9000	1000	> 1000	2300	9	20000	10000	10.0	
COc1ccc(-c2nn3ccc(-c4cc(C(=O)NC5(c6ccccc6)CC5)ccc4C)cc3c2-c2ncc[nH]2)cc1 [Example 191, 3-[3-(1H-imidazol-2-yl)-2-(4-methoxyphenyl)pyrazolo[1,5-a]pyridin-5-yl]-4-methyl-N-(1-phenylcyclopropyl)benzamide]												17.6	12					IC50 [14]: 8.4 nM
